# Data taken from patent publication US20230181564A1, “Potent Tetrahydroquinolone Eliminates Apicomplexan Parasites” (The University of Chicago, priority 2020, published 2023).
# Key:
# [1] = test system: Human Foreskin Fibroblast (HFF); test: Cytotoxicity assay with WST-1 on HFF; type: cell-based
# Procedure: PBS Sol/Toxicity pH7.4 refers to solubility of the compound in Phosphate Buffered Saline (PBS) at pH7.4. […] Tachy/Brady IC50 was determined in studies in which cultures of parasites in HFF were treated with varying concentrations of the compound and there was 50% inhibition of the replication (number) of parasites. Parasites were RH-YFP expressing tachyzoites (Tachy) and EGS (Brady) strains. Studies of effects of inhibitors on HFF or on T.gondii tachyzoites were performed with triplicate wells in at least two biological replicate experiments. Studies of effects on bradyzoites were performed at least twice in at least two biological replicate experiments. Compounds with much less inhibition of mammalian than T. gondii cytochrome bc in the saffarine enzyme assay (indicated by **) provide potential to further develop compounds, if unanticipated toxicity occurs from JAG21.
# Cytotoxicity Assays in parallel with RH Strain T.gondii in vitro studies. Toxicity assays used WST-1 cell proliferation reagent (Roche) as in Fomovska et al. (2012). HFF were grown on a flat, clear-bottomed, black 96-well plate. Confluent HFF were treated with inhibitory compounds at concentrations of 10 μM and 50 μM. Compounds were diluted in IMDM-C, and 20 μL were added to each designated well, with triplicates for each condition. A gradient with 2 fold-decreasing concentrations of DMSO from 10% to 0% in colorless, translucent IMDM-C was used as a control. The plate was incubated for 72 hours at 37° C. 10 μL WST-1 reagent (Roche) were added to each well. Cells were incubated for 30-60 minutes. Absorbance was read using a fluorimeter at 420 nm. A higher degree of color change (and absorbance) indicated mitochondrial activity and cell viability.
# Because T. gondii grows inside cells, if a compound were toxic to host HFF then it would make the compound appear to be spuriously effective (Fomovska et al. 2012; Fomovska et al. 2012a), when in actuality only toxicity for the host cell would be measured. Cytotoxicity to HFF was therefore assessed for all compounds at 10 μM. Results of this experiment are in Table 1, toxicity column. A two-way ANOVA and subsequent pairwise comparison found none of the differences in absorbance, compared to the media-DMSO vehicle controls, to be statistically significant (p>0.05). Most of these compounds are not toxic at 10 μM (the limit of solubility) and that cytotoxicity to cells can be attributed to DMSO in the solution, not the compound.
# [2] = Metabolic stability in human liver microsomes; type: in vitro ADME
# Procedure: PBS Sol/Toxicity pH7.4 refers to solubility of the compound in Phosphate Buffered Saline (PBS) at pH7.4. […] Parasites were RH-YFP expressing tachyzoites (Tachy) and EGS (Brady) strains. Studies of effects of inhibitors on HFF or on T.gondii tachyzoites were performed with triplicate wells in at least two biological replicate experiments. Studies of effects on bradyzoites were performed at least twice in at least two biological replicate experiments. Compounds with much less inhibition of mammalian than T. gondii cytochrome bc in the saffarine enzyme assay (indicated by **) provide potential to further develop compounds, if unanticipated toxicity occurs from JAG21.
# Structure Activity Relationship (SAR) and comparison of effect on T.gondii and HFF enzyme activity. […] The MDCK-MDR1 Permeability Assay was also performed. […] These were measured by Chem Partners.
# [3] = test system: T. gondii Me49 strain; test: Established chronic Me49 infection in Balb/C mice, brain cysts; type: in vivo, Toxoplasma gondii; details: treatment from day 30 after Me49 infection, IP daily for 14 days; p<0.03, p<0.01
# Procedure: In separate experiments, Balb/C mice were infected IP with 20×10^3 T. gondii Me49 strain tachyzoites. In these separate studies of mice with established chronic infection, after 30 days, IP treatment with JAG21 was begun each day for 14 days. JAG21 was dissolved in DMSO and administered IP in a total volume of 0.05 mL. In experiments when tafenoquine was administered alone or with JAG21 in some groups 3 mg/kg tafenoquine was administered once on day −1 from when JAG21 treatment was initiated. Cysts in brain were quantitated on day 30, 16 days after discontinuing JAG21. Immunoperoxidase staining was performed. Parasite burden was quantitated in two ways. The first was using a positive pixel count algorithm of Aperio ImageScope software. Positive pixels were normalized to tissue area (mm^2). Briefly, automated quantitation was done by counting positive pixels per square area. The entire brain in one section was scanned for each mouse. The Cyst burden was quantitated as units of positive pixels per mm2. The average±S.E.M. numbers of mm2 per slide quantitated was 30.2±1.6 square mm per mouse for this quantification. […] Cysts on each slide for each condition in two biological replicate experiments were also quantitated by 2 separate observers independently and results compared with automated counting, separately.
# [4] = test system: T. gondii ΔRPS13; test: ΔRPS13 infection of interferon receptor knockout mice; type: in vivo, Toxoplasma gondii; details: 100,000 ΔRPS13; TAF day -1, JAG21 14 days, then tetracycline; vs either alone; not durable
# Description: RPS13 Δ In vivo. This G1 arrested parasite persists in tissue culture for prolonged times in the absence of tetracycline (Hutson et al 2010), but in immune competent mice it cannot be rescued with teteracycline, or LNAME (L-N^G-Nitro arginine methyl ester, an analog of arginine) used as an antagonist of nitric oxide synthase (NOS) that inhibits NO production, or both together (Hutson et al. 2010).
# In pilot studies, herein, interferon α receptor knockout mice that were not treated were observed following infection. At 7 and at 14 days following infection, spleen and liver were removed and immune peroxidase stained. At 14 days a group of mice were treated with anhydrotetracycline and when a subset of these mice died their spleen and liver were removed and immune peroxidase stained.
# As in the pilot studies, this RPS13 Δ parasite also was used to infect interferon α receptor knockout mice in a treatment study. In this separate study, groups of mice were infected with RPS13 Δ. […] At the time they appeared to have substantial illness or at the termination of the experiment they were euthanized, tissues fixed in formalin and stained with hematoxylin and eosin or immunoperoxidase stained and parasite burden was assessed.
# [5] = test system: T. gondii RH-YFP tachyzoites; test: Synergy studies with RH strain YFP tachyzoites; type: cell-based, Toxoplasma gondii
# Procedure: Synergy studies with RH strain YFP Tachyzoites. Atovaquone and pyrimethamine were used to test whether they are synergistic with JAG21. Serial dilutions of the combination of JAG21 and either atovaquone or pyrimethamine were used in an in vitro challenge assay as described above. The EC50 of each compound and the combination of two compounds were determined. The effect of the combination of drugs was calculated with the following formula: C=[A]c/[A]a+[B]c/[B]a. If C is lower than 1, the two compounds tested have synergistic effect; if C is greater than 1, the two compounds tested have antagonist effect and if C is 1 they are additive.
structure (smiles),measurement,setting,value
"Cc1[nH]c2c(c(=O)c1-c1ccc(Oc3ccc(OC(F)(F)F)cc3)cc1)CCCC2 [JAG021, 2-methyl-3-(4-(4-(trifluoromethoxy)phenoxy)phenyl)-5,6,7,8-tetrahydroquinolin-4-one]",Toxicity to human cells in the in vitro model (HFF),[1],not toxic
same,Remaining in human liver microsomes,[2]; after 45 minutes,> 99%
same,half-life,"[2]; predicted half-life in human liver microsomes, unit in cell, read-out: T1/2 (H)",> 168 h
same,"Normal appearing cysts, free organisms and immunoperoxidase stained cysts in brain",[3],"marked, statistically significant reduction"
same,"Survival time, JAG21 combined with tafenoquine",[4],improved time of survival
same,Combination with atovaquone against RH strain tachyzoites,[5]; isobologram,synergy
same,Combination with pyrimethamine against RH strain tachyzoites,[5]; no synergy,no antagonism
